Data reported in paper PMC8297402, “Trifluoromethyl-substituted 3,5-bis(arylidene)-4-piperidones as potential anti-hepatoma and anti-inflammation agents by inhibiting NF-кB activation” (Journal of Enzyme Inhibition and Medicinal Chemistry, 2021).

Key:
[1] = Modified MTT cytotoxicity assay, normal heptical cell line LO2; assay type: cell-based, human; details: human, LO2 cells (normal hepatic cell line), 24 h incubation
Outline: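 HepG2 grown in DMEM, SMMC-7721 and LO2 in RPMI 1640, each with 10% FBS; ~8 × 10^3 cells/well. Compounds at 0.3125-10 μg/mL for 24 h at 37 °C, then MTT for 4 h. IC50 as mean of three replicates.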

C-Caspase-3 = experiment: Western blot, C-Caspase-3 expression in HepG2 cells; assay type: cell-based, Human; details: HepG2, 1.0, 2.0, 4.0 μM, 24 h
From the text: (§1) Primary antibodies (anti-Bax, Abcam, ab32503; anti-Bcl-2, Abcam, ab194583; anti-Cleaved caspase-3, Abcam, ab2302; anti-p65, Cell Signalling Technology, 8242S; anti-p-p65, Cell Signalling Technology, 3033S; anti-IκBα, Cell Signalling Technoligy, 4812S; anti-p-IκBα, Cell Signalling Technology, 2859S; anti-p38, Cell Signalling Technology, 8690S; anti-p-p38, Cell Signalling Technology, 4511S; anti-JNK, Cell Signalling Technology, 9258 T; anti-p-JNK, Santa Cruz Biotechnology, sc-6254; anti-GAPDH, Abcam, ab181602), and goat anti-rabbit IgG/HRP secondary antibodies (Cell Signalling Technology, 98164 s) were purchased and used according to the manufacturer’s instructions. HepG2 cell lines were incubated with different doses of BAP 16 (1.0, 2.0, 4.0 μM) for 24 h (Bax, Cleaved caspase-3, Bcl-2). RAW264.7 cells were incubated with BAP 16 for 1 h, then treated with LPS (1.0 μg/mL) for 30 min. Afterward cell extraction was performed and extracts were used for Western blot analysis. Next, 30 μg protein of cell lysates were separated by 12% SDS-PAGE gel. The proteins were then transferred onto nitrocellulose membranes. […] By using Quantity One software (Bio-Rad), western blotting results were quantified from more than three separate experiments.

IL-6 = experiment: ELISA of IL-6 release in LPS-stimulated RAW264.7 cells; assay type: cell-based, mouse; details: Mus musculus, RAW264.7, BAPs (5 μM) + LPS (1 μg/mL), RAW264.7, ELISA; read-out: Inhibition rate IL-6
Outline: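 RAW264.7 cells pretreated 2 h with compound at 5.0 μM (PDTC 30 μM as reference), then stimulated with LPS 1.0 μg/mL for a further 22 h. Secreted TNF-α and IL-6 in the culture media quantified by ELISA.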

Bcl-2 = experiment: Western blot, Bcl-2 expression in HepG2 cells; assay type: cell-based, Human; details: HepG2, 1.0, 2.0, 4.0 μM, 24 h
From the text: as §1

A2780 = experiment: Modified MTT cytotoxicity assay, A2780
Protocol: To further verify the anti-tumour activity, one human non-small cell lung cancer cell line (A549), one human ovarian cancer cell line (A2780), and one human normal heptical cell line (HHL-5) were screened by BAPs (4–30) using a modified MTT assay (Supporting Information). DOX and curcumin were selected as positive controls.
The optical density (OD) value of each well was measured on a
multi-well plate reader (TECAN, Mӓnnedorf, Switzerland ) at 570 nm.
Every IC 50 value was the average of three replicates.
Doxorubicin (DOX) and Curcumin were used as positive controls.

in vitro = assay type: cell-based; details: human
Protocol: aThe letters SI refer to the selectivity index which is the quotient of the IC50 values for normal and […]
Preliminary safety evaluation of BAP 16
Toxicity test on normal non-liver cell lines: To validate the safety of BAP 16, one Human embryonic lung fibroblasts cell line (HFL1), one human embryonic kidney cell line (HEK293), and one human normal lung bronchial epithelial cell line (BEAS-2B) were tested using a modified MTT assay (Dojindo Laboratories, Tokyo, Japan). F12K medium containing 10% FBS was used for culturing the HFL1 cell line, DMEM medium containing 10% FBS and 1.5 g/L sodium bicarbonate was used for culturing the HEK293 cell line, and the BEAS-2B special medium was used for culturing BEAS-2B cell line. The remaining operations were consistent with the previous […]
human normal non-heptical cell lines (HFL1, HEK293 and BEAS-2B), which was similar to that of human normal heptical cell lines.
Table S2. Toxicity test of BAP 16 on normal non-heptical cell lines. […]
Acute Toxicity Studies: Animal experiments were reviewed and approved by the Binzhou Medical University Experimental Animal Committee. The acute toxicity study was investigated on the six-week-old female ICR mice (n = 30) weighing 18-22 grams (Jinan Pengyue Experimental Animal Breeding Co., Ltd.). Briefly, mice were randomly divided into three groups (n = 10/group) and administrated the BAP 16 or solvent. The three groups of mice were treated with intragastric administration of 300 mg/kg, 600 mg/kg of BAP 16 and vehicle (saline containing 0.5% CMC-Na) each day. The body weight of mice was recorded every day, and the toxicity and death of mice were monitored daily for up to day 14. On day 14, the surviving animals were dissected to observe whether the internal organs had visible tissue changes, and then the livers were taken for formaldehyde fixation, dehydration, embedding, sectioning, and HE staining. The cell images were taken using a light microscopy (Olympus, Tokyo, Japan).

p-p38 = experiment: Western blot, LPS-induced phosphorylation of p38 in RAW264.7 cells; assay type: cell-based, mouse; details: RAW264.7, 1.0, 2.0, 4.0 μM, LPS 1.0 μg/mL 30 min
From the text: as §1

Structure (SMILES): O=C1C(=Cc2cccc(C(F)(F)F)c2)CN(S(=O)(=O)c2ccc(C(F)(F)F)cc2)CC1=Cc1cccc(C(F)(F)F)c1 [BAP 16]
- IC50 at 24 h [1]: ~17.8 µM
- Expression of pro-apoptotic protein C-Caspase-3 (C-Caspase-3): significantly increased
- inhibition at 5 µM (IL-6): ~79.2%
- Expression of anti-apoptotic protein Bcl-2 (Bcl-2): decreased in a dose-dependent manner
- IC50 (A2780; Homo sapiens, A2780, read-out: Cytotoxicity IC50 A2780, MTT, ovarian cancer cell line): 0.27 ± 0.02 µM
- SI (selectivity index) A2780 (A2780; quotient of IC50 for normal (HHL-5) and malignant (A2780) cells): 23.0
- IC50 (in vitro; Cytotoxicity IC50 BEAS-2B): 17.6 ± 2.53 µM
- IC50 (in vitro; Cytotoxicity IC50 HEK293): 7.19 ± 0.91 µM
- IC50 (in vitro; Cytotoxicity IC50 HFL1): 9.62 ± 1.52 µM
- Expression level of p-p38 (p-p38): significantly decreased
